Experimental data reported in ChEMBL document CHEMBL2203210, “SAR and in vivo evaluation of 4-aryl-2-aminoalkylpyrimidines as potent and selective Janus kinase 2 (JAK2) inhibitors” (Bioorg Med Chem Lett, 2012).

Key:
[1] = Inhibition of p-gp
[2] = molecular target: Voltage-gated inwardly rectifying potassium channel KCNH2 (Homo sapiens, UniProt Q12809); experiment: Inhibition of human ERG
Cytochrome P450 3A4 = Cytochrome P450 3A4 (Homo sapiens, UniProt P08684); experiment: Inhibition of CYP3A4; assay type: ADME
Cytochrome P450 2C9 = Cytochrome P450 2C9 (Homo sapiens, UniProt P11712); experiment: Inhibition of CYP2C9; assay type: ADME
Chain of Cytochrome P450 2C9 (P11712 whole entry): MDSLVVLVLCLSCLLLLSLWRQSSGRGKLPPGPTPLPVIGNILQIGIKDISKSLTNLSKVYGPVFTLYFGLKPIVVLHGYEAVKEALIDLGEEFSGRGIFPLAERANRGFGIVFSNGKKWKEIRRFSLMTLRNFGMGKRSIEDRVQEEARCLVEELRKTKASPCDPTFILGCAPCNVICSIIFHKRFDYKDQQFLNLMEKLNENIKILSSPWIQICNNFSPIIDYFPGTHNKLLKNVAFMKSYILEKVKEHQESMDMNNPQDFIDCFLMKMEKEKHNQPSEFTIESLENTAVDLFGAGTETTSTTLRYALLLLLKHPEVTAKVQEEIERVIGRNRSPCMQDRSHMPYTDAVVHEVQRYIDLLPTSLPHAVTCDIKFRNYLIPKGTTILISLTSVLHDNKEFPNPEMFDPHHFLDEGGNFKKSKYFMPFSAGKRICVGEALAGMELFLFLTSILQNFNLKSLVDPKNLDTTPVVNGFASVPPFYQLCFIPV

Cytochrome P450 2D6 = Cytochrome P450 2D6 (Homo sapiens, UniProt P10635); experiment: Inhibition of CYP2D6; assay type: ADME
Chain of Cytochrome P450 2D6 (P10635 whole entry): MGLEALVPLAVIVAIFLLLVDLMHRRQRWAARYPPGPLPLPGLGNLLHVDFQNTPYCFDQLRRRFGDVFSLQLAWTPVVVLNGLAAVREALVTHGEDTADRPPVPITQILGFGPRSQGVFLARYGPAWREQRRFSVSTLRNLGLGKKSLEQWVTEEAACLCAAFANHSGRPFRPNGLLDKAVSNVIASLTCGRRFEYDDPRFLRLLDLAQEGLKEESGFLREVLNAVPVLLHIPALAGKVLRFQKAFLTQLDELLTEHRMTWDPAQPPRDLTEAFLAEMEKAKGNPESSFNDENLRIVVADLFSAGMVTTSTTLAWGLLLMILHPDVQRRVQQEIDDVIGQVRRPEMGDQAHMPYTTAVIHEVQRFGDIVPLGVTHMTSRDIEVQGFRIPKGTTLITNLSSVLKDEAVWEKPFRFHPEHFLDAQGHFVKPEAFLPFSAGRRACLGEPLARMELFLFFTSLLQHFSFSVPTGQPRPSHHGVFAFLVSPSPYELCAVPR

Cytochrome P450 1A2 = Cytochrome P450 1A2 (Homo sapiens, UniProt P05177); experiment: Inhibition of CYP1A2; assay type: ADME
Chain of Cytochrome P450 1A2 (P05177 whole entry): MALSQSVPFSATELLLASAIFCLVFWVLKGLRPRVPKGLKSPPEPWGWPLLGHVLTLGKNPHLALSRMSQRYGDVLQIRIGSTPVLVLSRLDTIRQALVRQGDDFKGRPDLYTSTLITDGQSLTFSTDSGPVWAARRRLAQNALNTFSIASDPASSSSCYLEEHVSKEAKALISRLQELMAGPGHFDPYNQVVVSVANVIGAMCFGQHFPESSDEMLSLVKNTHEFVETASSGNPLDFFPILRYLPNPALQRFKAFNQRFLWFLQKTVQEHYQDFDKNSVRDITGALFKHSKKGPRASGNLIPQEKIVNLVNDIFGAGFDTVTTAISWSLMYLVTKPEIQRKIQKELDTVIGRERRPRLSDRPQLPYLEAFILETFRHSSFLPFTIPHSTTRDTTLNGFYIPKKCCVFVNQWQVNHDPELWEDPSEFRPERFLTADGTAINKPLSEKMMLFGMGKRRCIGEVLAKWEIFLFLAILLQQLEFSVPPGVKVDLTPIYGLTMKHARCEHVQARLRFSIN

[3] = molecular target: Vascular endothelial growth factor receptor 1 (Homo sapiens, UniProt P17948); experiment: Inhibition of FLT1
Chain of Vascular endothelial growth factor receptor 1 (P17948 whole entry): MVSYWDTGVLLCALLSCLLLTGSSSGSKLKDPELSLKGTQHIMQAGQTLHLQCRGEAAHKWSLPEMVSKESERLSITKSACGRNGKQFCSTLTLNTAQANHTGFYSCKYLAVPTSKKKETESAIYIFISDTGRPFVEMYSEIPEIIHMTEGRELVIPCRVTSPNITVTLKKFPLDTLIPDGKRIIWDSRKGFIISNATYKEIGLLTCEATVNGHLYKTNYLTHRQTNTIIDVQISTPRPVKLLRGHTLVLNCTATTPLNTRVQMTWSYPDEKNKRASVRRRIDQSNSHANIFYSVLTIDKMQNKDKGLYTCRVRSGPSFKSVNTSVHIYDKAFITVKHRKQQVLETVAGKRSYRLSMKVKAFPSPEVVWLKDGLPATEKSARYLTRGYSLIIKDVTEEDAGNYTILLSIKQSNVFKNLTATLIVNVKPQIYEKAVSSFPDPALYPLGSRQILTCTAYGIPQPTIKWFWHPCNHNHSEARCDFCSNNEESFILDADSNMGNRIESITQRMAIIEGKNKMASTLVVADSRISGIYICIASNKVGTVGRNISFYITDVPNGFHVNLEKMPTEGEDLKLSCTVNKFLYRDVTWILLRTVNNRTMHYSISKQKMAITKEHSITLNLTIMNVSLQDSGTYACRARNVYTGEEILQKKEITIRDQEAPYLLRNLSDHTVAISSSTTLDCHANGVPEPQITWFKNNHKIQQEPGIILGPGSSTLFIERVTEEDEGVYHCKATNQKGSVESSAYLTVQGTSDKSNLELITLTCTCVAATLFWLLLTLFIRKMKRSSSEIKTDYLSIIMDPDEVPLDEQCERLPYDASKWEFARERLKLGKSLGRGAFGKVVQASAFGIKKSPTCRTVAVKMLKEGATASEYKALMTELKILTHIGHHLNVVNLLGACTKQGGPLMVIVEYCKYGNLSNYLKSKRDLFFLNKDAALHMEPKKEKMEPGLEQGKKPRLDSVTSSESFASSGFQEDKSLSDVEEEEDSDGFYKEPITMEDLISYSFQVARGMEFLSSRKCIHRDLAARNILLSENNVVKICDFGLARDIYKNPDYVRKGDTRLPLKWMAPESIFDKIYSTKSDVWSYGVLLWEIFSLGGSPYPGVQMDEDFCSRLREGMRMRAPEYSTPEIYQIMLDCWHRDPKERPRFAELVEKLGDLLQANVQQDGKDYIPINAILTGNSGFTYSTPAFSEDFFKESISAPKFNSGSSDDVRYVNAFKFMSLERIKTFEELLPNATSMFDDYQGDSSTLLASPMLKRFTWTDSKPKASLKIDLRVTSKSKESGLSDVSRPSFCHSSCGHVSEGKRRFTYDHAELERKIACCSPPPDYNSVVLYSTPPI

[4] = molecular target: Vascular endothelial growth factor receptor 2 (Homo sapiens, UniProt P35968); experiment: Inhibition of KDR
[5] = molecular target: Mast/stem cell growth factor receptor Kit (Homo sapiens, UniProt P10721); experiment: Inhibition of c-KIT
Chain of Mast/stem cell growth factor receptor Kit (P10721 whole entry): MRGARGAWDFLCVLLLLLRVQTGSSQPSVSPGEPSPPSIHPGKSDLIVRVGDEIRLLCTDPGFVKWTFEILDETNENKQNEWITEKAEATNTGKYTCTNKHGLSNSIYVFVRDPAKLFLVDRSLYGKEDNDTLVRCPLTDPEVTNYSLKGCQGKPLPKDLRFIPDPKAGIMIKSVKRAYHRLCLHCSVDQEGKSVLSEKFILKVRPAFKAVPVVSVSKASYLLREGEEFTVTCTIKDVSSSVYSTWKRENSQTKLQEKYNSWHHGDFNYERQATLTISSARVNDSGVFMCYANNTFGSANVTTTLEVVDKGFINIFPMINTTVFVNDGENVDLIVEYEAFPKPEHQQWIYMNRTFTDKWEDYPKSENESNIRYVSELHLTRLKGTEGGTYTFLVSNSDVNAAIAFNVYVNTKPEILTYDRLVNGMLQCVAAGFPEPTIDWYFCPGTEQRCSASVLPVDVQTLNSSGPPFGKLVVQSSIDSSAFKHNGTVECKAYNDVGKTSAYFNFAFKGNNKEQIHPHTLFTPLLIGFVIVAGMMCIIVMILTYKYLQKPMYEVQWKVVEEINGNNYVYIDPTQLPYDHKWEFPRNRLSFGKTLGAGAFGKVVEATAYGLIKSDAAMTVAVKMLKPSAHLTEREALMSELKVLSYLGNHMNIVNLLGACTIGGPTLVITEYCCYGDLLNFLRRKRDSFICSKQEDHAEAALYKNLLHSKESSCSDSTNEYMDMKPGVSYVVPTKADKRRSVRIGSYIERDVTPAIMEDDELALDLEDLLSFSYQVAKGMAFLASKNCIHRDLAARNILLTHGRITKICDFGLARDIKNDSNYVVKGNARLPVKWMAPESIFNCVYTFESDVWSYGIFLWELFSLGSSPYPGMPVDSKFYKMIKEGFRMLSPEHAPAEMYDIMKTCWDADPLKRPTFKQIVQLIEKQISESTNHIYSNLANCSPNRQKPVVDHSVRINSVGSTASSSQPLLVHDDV

[6] = molecular target: Ribosomal protein S6 kinase beta-1 (Homo sapiens, UniProt P23443); experiment: Inhibition of P70S6K
[7] = molecular target: Non-receptor tyrosine-protein kinase TYK2 (Homo sapiens, UniProt P29597); experiment: Inhibition of TYK2
[8] = molecular target: Receptor-type tyrosine-protein kinase FLT3 (Homo sapiens, UniProt P36888); experiment: Inhibition of FLT3
[9] = molecular target: Tyrosine-protein kinase JAK1 (Homo sapiens, UniProt P23458); experiment: Inhibition of JAK1
Chain of Tyrosine-protein kinase JAK1 (P23458 whole entry): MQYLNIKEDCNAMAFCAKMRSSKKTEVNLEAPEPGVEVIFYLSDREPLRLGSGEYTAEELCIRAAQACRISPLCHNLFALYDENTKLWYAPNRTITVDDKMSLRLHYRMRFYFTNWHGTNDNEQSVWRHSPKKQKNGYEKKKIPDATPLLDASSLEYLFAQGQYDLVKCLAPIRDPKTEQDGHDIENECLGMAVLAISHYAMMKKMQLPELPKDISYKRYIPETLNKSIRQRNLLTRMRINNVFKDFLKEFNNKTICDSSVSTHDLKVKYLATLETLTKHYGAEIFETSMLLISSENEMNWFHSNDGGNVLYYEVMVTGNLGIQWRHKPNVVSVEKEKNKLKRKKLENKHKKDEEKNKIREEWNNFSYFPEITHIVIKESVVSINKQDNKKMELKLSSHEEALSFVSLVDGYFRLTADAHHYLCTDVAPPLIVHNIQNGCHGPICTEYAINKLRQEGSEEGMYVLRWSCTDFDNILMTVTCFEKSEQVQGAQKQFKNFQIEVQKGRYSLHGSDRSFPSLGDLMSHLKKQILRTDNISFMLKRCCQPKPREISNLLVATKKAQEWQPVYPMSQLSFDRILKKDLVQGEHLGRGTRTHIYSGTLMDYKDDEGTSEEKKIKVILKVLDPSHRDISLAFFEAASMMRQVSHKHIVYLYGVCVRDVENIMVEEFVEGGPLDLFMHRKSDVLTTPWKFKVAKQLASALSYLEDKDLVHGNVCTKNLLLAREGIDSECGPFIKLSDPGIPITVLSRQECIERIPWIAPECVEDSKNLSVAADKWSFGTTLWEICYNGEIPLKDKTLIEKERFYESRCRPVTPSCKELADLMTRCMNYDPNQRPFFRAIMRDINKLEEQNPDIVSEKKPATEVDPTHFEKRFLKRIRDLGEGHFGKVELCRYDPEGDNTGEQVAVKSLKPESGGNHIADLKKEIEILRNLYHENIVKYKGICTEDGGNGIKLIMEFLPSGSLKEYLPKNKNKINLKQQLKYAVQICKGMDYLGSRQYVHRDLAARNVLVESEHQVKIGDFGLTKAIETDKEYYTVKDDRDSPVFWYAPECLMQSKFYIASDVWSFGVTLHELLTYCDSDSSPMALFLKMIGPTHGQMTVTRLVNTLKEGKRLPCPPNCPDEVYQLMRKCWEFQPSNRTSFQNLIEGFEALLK

Cynomolgus monkey [10] = experiment: Dose normalized AUC in cynomolgus monkey at 3 mg/kg, po; assay type: ADME, organism-based, Macaca fascicularis; design: dose 3 mg/kg, route oral; conditions: in vivo
Canis familiaris [11] = experiment: Dose normalized AUC in Beagle dog at 3 mg/kg, po; assay type: ADME, organism-based, Canis lupus familiaris; design: dose 3 mg/kg, route oral; conditions: in vivo
Rattus norvegicus [12] = experiment: Dose normalized AUC in CD rat at 5 mg/kg, po; assay type: ADME, organism-based; design: dose 5 mg/kg, route oral; conditions: in vivo
Mus musculus [13] = experiment: Dose normalized AUC in athymic nude mouse at 10 mg/kg, po; assay type: ADME, organism-based; design: dose 10 mg/kg, route oral; conditions: in vivo
Cynomolgus monkey [14] = experiment: Dose normalized AUC in cynomolgus monkey at 3 mg/kg, iv; assay type: ADME, organism-based, Macaca fascicularis; design: dose 3 mg/kg, route intravenous; conditions: in vivo
Canis familiaris [15] = experiment: Dose normalized AUC in Beagle dog at 3 mg/kg, iv; assay type: ADME, organism-based, Canis lupus familiaris; design: dose 3 mg/kg, route intravenous; conditions: in vivo
Mus musculus [16] = experiment: Dose normalized AUC in athymic nude mouse at 10 mg/kg, iv; assay type: ADME, organism-based; design: dose 10 mg/kg, route intravenous; conditions: in vivo
[17] = Cmax in Beagle dog at 3 mg/kg, po; assay type: ADME, organism-based, Canis lupus familiaris; design: dose 3 mg/kg, route oral; conditions: in vivo
[18] = Cmax in cynomolgus monkey at 3 mg/kg, po; assay type: ADME, organism-based, Macaca fascicularis; design: dose 3 mg/kg, route oral; conditions: in vivo
[19] = Cmax in CD rat at 5 mg/kg, po; assay type: ADME, organism-based; design: dose 5 mg/kg, route oral; conditions: in vivo
[20] = Cmax in athymic nude mouse at 10 mg/kg, po; assay type: ADME, organism-based; design: dose 10 mg/kg, route oral; conditions: in vivo
[21] = Cmax in Beagle dog at 3 mg/kg, iv; assay type: ADME, organism-based, Canis lupus familiaris; design: dose 3 mg/kg, route intravenous; conditions: in vivo
[22] = Cmax in cynomolgus monkey at 3 mg/kg, iv; assay type: ADME, organism-based, Macaca fascicularis; design: dose 3 mg/kg, route intravenous; conditions: in vivo
[23] = Cmax in athymic nude mouse at 10 mg/kg, iv; assay type: ADME, organism-based; design: dose 10 mg/kg, route intravenous; conditions: in vivo
[24] = Oral bioavailability in cynomolgus monkey at 3 mg/kg; assay type: ADME, organism-based, Macaca fascicularis; conditions: in vivo
[25] = Oral bioavailability in Beagle dog at 3 mg/kg; assay type: ADME, organism-based, Canis lupus familiaris; conditions: in vivo
[26] = Oral bioavailability in athymic nude mouse at 10 mg/kg; assay type: ADME, organism-based; conditions: in vivo
[27] = Half life in Beagle dog at 3 mg/kg, po; assay type: ADME, organism-based, Canis lupus familiaris; design: dose 3 mg/kg, route oral; conditions: in vivo
[28] = Half life in cynomolgus monkey at 3 mg/kg, po; assay type: ADME, organism-based, Macaca fascicularis; design: dose 3 mg/kg, route oral; conditions: in vivo
[29] = Half life in CD rat at 5 mg/kg, po; assay type: ADME, organism-based; design: dose 5 mg/kg, route oral; conditions: in vivo
[30] = Half life in cynomolgus monkey at 3 mg/kg, iv; assay type: ADME, organism-based, Macaca fascicularis; design: dose 3 mg/kg, route intravenous; conditions: in vivo
[31] = Half life in athymic nude mouse at 10 mg/kg, po; assay type: ADME, organism-based; design: dose 10 mg/kg, route oral; conditions: in vivo
[32] = Half life in Beagle dog at 3 mg/kg, iv; assay type: ADME, organism-based, Canis lupus familiaris; design: dose 3 mg/kg, route intravenous; conditions: in vivo
[33] = Half life in CD rat at 5 mg/kg, iv; assay type: ADME, organism-based; design: dose 5 mg/kg, route intravenous; conditions: in vivo
Cynomolgus monkey [34] = experiment: Volume of distribution in cynomolgus monkey at 3 mg/kg, po and iv; assay type: ADME, organism-based, Macaca fascicularis; design: dose 3 mg/kg, route oral; conditions: in vivo
Canis familiaris [35] = experiment: Volume of distribution in Beagle dog at 3 mg/kg, po and iv; assay type: ADME, organism-based, Canis lupus familiaris; design: dose 3 mg/kg, route oral; conditions: in vivo
Rattus norvegicus [36] = experiment: Volume of distribution in CD rat at 5 mg/kg, po and iv; assay type: ADME, organism-based; design: dose 5 mg/kg, route oral; conditions: in vivo
Mus musculus [37] = experiment: Volume of distribution in athymic nude mouse at 10 mg/kg, po and iv; assay type: ADME, organism-based; design: dose 10 mg/kg, route oral; conditions: in vivo
[38] = Metabolic stability in mouse liver microsomes assessed as compound remaining after 30 mins; assay type: ADME, Microsome; conditions: read-out: Stability
HEL [39] = experiment: Induction of apoptosis in HEL 92.1.7 cells xenografted in nude mouse at 300 mg/kg, po bid relative to vehicle-treated control; assay type: functional, Homo sapiens
HEL [40] = experiment: Anitumour activity against HEL 92.1.7 cells xenografted in nude mouse assessed as tumor growth inhibition at 300 mg/kg, po bid administered up to 14 days relative to vehicle-treated control; assay type: functional, Homo sapiens; conditions: 336 h, read-out: TGI
HEL [41] = experiment: Anitumour activity against HEL 92.1.7 cells xenografted in nude mouse assessed as tumor growth inhibition at 200 mg/kg, po bid administered up to 14 days relative to vehicle-treated control; assay type: functional, Homo sapiens; conditions: 336 h, read-out: TGI
Mus musculus [42] = experiment: Inhibition of JAK2 in HEL 92.1.7 cells xenografted in nude mouse assessed as inhibition of STAT3 phosphorylation at 300 mg/kg, po after 4 hrs relative to vehicle-treated control; assay type: functional
Mus musculus [43] = experiment: Inhibition of JAK2 in HEL 92.1.7 cells xenografted in po dosed nude mouse assessed as inhibition of STAT1 phosphorylation after 4 hrs; assay type: functional, organism-based
Mus musculus [44] = experiment: Inhibition of JAK2 in HEL 92.1.7 cells xenografted in nude mouse assessed as inhibition of STAT3 phosphorylation at 30 mg/kg, po after 4 hrs relative to vehicle-treated control; assay type: functional
Mus musculus [45] = experiment: Inhibition of JAK2 in HEL 92.1.7 cells xenografted in nude mouse assessed as inhibition of STAT1 phosphorylation at 30 mg/kg, po after 4 hrs relative to vehicle-treated control; assay type: functional
[46] = Drug uptake in nude mouse xenografted with HEL 92.1.7 cells at 300 mg/kg, po after 4 hrs; assay type: ADME, organism-based; design: dose 300 mg/kg, route oral; conditions: in vivo, read-out: Drug uptake
[47] = Drug uptake in nude mouse xenografted with HEL 92.1.7 cells at 100 mg/kg, po after 4 hrs; assay type: ADME, organism-based; design: dose 100 mg/kg, route oral; conditions: in vivo, read-out: Drug uptake
[48] = Plasma concentration in nude mouse xenografted with HEL 92.1.7 cells at 300 mg/kg, po after 4 hrs; assay type: ADME, organism-based; design: dose 300 mg/kg, route oral
[49] = Plasma concentration in nude mouse xenografted with HEL 92.1.7 cells at 30 mg/kg, po after 4 hrs; assay type: ADME, organism-based; design: dose 30 mg/kg, route oral

INH [1]: > 20 µM
INH (Cytochrome P450 3A4): >= 20 uM
INH (Cytochrome P450 2C9): >= 20 uM
INH (Cytochrome P450 2D6): >= 20 uM
INH (Cytochrome P450 1A2): >= 20 uM
IC50 [3]: 910 nM
IC50 [4]: 484 nM
IC50 [5]: 226 nM
IC50 [6]: 314 nM
IC50 [7]: 348 nM
IC50 [8]: 140 nM
IC50 [9]: 134 nM
AUC/dose (Cynomolgus monkey [10]): 1.2 µM·kg·h/mg
AUC/dose (Canis familiaris [11]): 0.68 µM·kg·h/mg
AUC/dose (Rattus norvegicus [12]): 8.54 µM·kg·h/mg
AUC/dose (Mus musculus [13]): 0.21 µM·kg·h/mg
AUC/dose (Cynomolgus monkey [14]): 1.76 µM·kg·h/mg
AUC/dose (Canis familiaris [15]): 1.47 µM·kg·h/mg
AUC/dose (Mus musculus [16]): 0.42 µM·kg·h/mg
Cmax [17]: 170 nM
Cmax [18]: 490 nM
Cmax [19]: 3530 nM
Cmax [20]: 570 nM
Cmax [21]: 440 nM
Cmax [22]: 640 nM
Cmax [23]: 5240 nM
bioavailability [24]: 68.6%
bioavailability [25]: 44.8%
bioavailability [26]: 54.5%
half-life [27]: 5.06 h
half-life [28]: 3.36 h
half-life [29]: 3.23 h
half-life [30]: 3.28 h
half-life [31]: 1.94 h
half-life [32]: 6 h
half-life [33]: 3.12 h
Vd (Cynomolgus monkey [34]): 6.739 L/kg
Vd (Canis familiaris [35]): 13.4 L/kg
Vd (Rattus norvegicus [36]): 0.666 L/kg
Vd (Mus musculus [37]): 5.319 L/kg
remaining at 0.5 h [38]: 62%
IC50 (Mus musculus [43]): 1390 nM
concentration at 4 h [46]: 62400 nM
concentration at 4 h [47]: 240000 nM
concentration at 4 h [48]: 20200 nM
concentration at 4 h [49]: 830 nM
SMILES: O=C(Nc1ccc(-c2ccnc(Nc3ccc(N4CCOCC4)cc3)n2)cc1)[C@H]1CCCN1
INH [2]: 16 µM
fold change (FC) (HEL [39]): 11.3
inhibition in vivo at 300 mg/kg (HEL [40]): 70%
inhibition in vivo at 200 mg/kg (HEL [41]): 60%
inhibition in vivo at 300 mg/kg (Mus musculus [42]): 55%
ED50 (Mus musculus [43]; po): 42 mg/kg
inhibition in vivo at 30 mg/kg (Mus musculus [44]): 9%
inhibition in vivo at 30 mg/kg (Mus musculus [45]): 41%
